Test results reported in patent US11291666B2, “Uses” (INTRA-CELLULAR THERAPIES, INC., priority 2016, dated 2022).

Assays:
C57Bl/6 mice = experiment: Chronic unpredictable stress (CUS) model, inflammatory markers and depression-like behaviors; type: in vivo, mouse; conditions: 10 mg/kg i.p. daily
Text: This experiment compares the impact of chronic stress on the brain cytokine/chemokine profile in wild type mice vs PDE1B conditional knockout mice.
PDE1B conditional knockout mice are described in Siuciak J A, et al. “Behavioral and neurochemical characterization of mice deficient in the phosphodiesterase-1B (PDE1B) enzyme.” Neuropharmacology. 2007 July; 53(1):113-24. Protocols for CUS and other models of chronic stress are described in Monteiro, et al., “An Efficient Chronic Unpredictable Stress Protocol to Induce Stress-Related Responses in C57BL/6 Mice,” Front Psychiatry. 2015; 6: 6 and in Mann et al., “Chronic social defeat, but not restrain stress, alters bladder function in mice” Physiol. Behav. 2015; Oct. 15; 150: 83-92.
Generally, wild type (control) mice and PDE1B conditional knockout mice, as appropriate, are exposed to the chronic stress using restraint stress in shallow water model (RSSW) as described by Mann et al (2015), above. […] Control mice for these experiments are also maintained in single housing cages. In accordance the stress protocol, the mice are monitored for the depression-like behavior profile. Mice are then sacrificed and tissue samples are collected. […] Brain tissue and serum is analyzed for a panel of markers, including pro-inflammatory and anti-inflammatory cytokines and chemokines.
C57Bl/6 mice are subjected to the CUS protocol (14d, as described) or sham treatment, evaluated for depression-like behaviors at a specified time points, and sacrificed for collection of blood (serum preparation) and brain collection. Serum is analyzed for corticosterone (CORT) levels and other inflammatory markers. The brain is analyzed for a panel of inflammatory markers by qPCR (mRNA) and MSD (protein).
Mice are evaluated for depression-like behaviors at a specified time point to test the impact of the CUS protocol and of the PDE1 inhibitor treatment on the depression-like phenotype. […] Serum is analyzed for CORT levels and other inflammatory markers. Brain samples are analyzed for a panel for a panel of inflammatory markers by qPCR (mRNA) and MSD (protein). […]

bovine retina PDE6 = biological target: T1, bovine retina PDE6 (Bos taurus, UniProt P11541+P23439); experiment: PDE selectivity, bovine retina PDE6; type: biochemical
T1 construct: bovine retina PDE6; from tissue; host or cells: bovine retina
T1 sequence (P11541 2-856 limits assumed): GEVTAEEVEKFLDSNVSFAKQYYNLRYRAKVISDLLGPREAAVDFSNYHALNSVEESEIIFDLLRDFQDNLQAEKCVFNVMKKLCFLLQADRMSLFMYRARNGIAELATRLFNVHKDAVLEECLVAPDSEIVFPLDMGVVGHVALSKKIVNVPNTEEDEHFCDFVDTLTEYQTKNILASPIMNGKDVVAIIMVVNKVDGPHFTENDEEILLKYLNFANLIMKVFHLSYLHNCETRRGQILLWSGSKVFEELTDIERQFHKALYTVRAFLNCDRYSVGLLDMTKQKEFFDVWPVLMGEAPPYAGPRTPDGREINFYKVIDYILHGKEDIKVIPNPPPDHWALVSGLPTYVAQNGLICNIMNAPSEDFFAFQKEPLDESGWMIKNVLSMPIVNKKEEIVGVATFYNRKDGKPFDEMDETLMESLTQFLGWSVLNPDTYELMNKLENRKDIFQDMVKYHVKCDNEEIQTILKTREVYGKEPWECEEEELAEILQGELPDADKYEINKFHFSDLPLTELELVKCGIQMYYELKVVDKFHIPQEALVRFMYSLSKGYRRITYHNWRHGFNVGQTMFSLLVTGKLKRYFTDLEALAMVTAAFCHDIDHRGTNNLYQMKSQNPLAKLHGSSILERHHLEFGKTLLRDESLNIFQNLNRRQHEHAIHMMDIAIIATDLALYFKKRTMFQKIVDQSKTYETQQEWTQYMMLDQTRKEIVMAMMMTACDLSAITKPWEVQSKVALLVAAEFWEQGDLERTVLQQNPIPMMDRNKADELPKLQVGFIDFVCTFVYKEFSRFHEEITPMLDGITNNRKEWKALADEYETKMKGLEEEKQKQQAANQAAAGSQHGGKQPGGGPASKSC
T1 sequence (P23439 2-850 limits assumed): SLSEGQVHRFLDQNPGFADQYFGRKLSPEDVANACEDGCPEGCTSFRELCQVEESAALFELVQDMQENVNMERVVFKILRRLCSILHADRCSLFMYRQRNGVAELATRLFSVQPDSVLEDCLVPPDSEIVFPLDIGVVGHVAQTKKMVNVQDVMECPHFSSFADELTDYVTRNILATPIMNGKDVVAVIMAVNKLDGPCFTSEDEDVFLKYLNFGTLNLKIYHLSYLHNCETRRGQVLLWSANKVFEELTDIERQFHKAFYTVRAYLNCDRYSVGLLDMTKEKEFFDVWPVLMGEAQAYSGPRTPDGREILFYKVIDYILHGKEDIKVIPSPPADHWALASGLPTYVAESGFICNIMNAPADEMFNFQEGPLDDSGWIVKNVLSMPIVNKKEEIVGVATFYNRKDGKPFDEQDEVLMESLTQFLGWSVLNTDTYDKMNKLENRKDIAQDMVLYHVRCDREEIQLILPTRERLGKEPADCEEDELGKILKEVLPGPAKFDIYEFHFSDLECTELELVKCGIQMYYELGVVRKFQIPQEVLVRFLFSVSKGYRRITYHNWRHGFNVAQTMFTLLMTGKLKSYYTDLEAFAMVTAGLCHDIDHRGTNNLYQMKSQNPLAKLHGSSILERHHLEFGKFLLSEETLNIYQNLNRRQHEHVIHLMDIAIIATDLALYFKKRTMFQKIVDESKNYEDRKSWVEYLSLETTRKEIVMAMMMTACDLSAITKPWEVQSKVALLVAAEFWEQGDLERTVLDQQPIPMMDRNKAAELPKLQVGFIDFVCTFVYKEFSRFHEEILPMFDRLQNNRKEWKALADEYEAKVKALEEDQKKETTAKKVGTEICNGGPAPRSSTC
Protocol: One unit of enzyme will hydrolyze […] of 3′,5′-cAMP to 5′-AMP per min at pH 7.5 at 30° C. […] 99 μl of diluted enzyme solution is added into each well in a flat bottom 96-well polystyrene plate to which 1 μι of test compound dissolved in 100% DMSO is added.

Question: Which results are given for `CN1C(=O)c2c(nn(Cc3ccc(-c4cccc(F)n4)cc3)c2Nc2ccccc2)N2C1=N[C@@H]1CCC[C@@H]12` [Compound 214]?
Answer: effect on tissue and serum markers and behaviors in PDE1B KO mice (C57Bl/6 mice; PDE1B KO mice, CUS): no significant effect; CUS-induced CNS and serum markers (proinflammatory) (C57Bl/6 mice; normal C57Bl/6 mice, CUS 14d): significantly suppresses; expression of depression-like behaviors (C57Bl/6 mice; normal C57Bl/6 mice, CUS 14d): significantly suppresses; IC50 (bovine retina PDE6): 324 nM
